Experimental data from patent US7691969B2, “Isolated GRP94 ligand binding domain polypeptide and nucleic acid encoding same, crystalline form of same, and screening methods employing same” (Duke University, priority 2001, dated 2010).

How the values were obtained:
casein kinase II = casein kinase II (Homo sapiens, UniProt P68400); assay: Casein kinase assay; format: biochemical; conditions: 180 μM NECA or radicicol in 3.6% DMSO, 5 μg/ml heparin, 5 mM GTP; 4 μM casein
Experimental: (§1) Phosphorylation Assays. To assay for GRP94 autophosphorylation, 1 μM GRP94 was incubated with γ-[^32P]ATP (6000 cpm/pmol) (Amersham Pharmacia Biotech of Piscataway, N.J.), diluted with cold ATP to yield a final concentration of 0.15 mM ATP in a buffer containing 10 mM Mg(OAc)2 and 50 mM K-Hepes, pH 7.4. For the casein kinase assay, 1 unit of casein kinase II was incubated as described above, with the addition of 4 μM casein. […] The 25 μl reaction mixtures were incubated at 37° C. for 1 hour and quenched by addition of 10% trichloroacetic acid. Samples were analyzed by 10% SDS-PAGE gels and the phosphorylated species were quantitated using a Fuji MACBAS1000™ phosphorimaging system (Fuji Medical Systems of Stamford, Conn.).

HSP90 = HSP90 (Saccharomyces cerevisiae, UniProt P02829); conditions: cited from earlier work
GRP94 [1] = target: T1, GRP94 (Sus scrofa, UniProt Q29092); assay: [3H]-NECA competitive displacement assay; format: binding, porcine; conditions: for effect of excess Mg2+ on binding to GRP94: 10 mM Mg(OAc)2 versus nominal magnesium; for nucleoside base specificity: binding to GRP94 by [3H]-NECA displacement: competitors at 50 μM
T1 construct: GRP94 was purified from porcine pancreas rough microsomes; from tissue; host or cells: porcine pancreas rough microsomes (lumenal contents)
Experimental: Where indicated, binding reactions were performed in either buffer C (10 mM Tris, pH 7.5, 50 mM KCl, 5 mM MgCl2, 2 mM DTT, 0.01% NP-40, 20 mM Na2MoO4) or 50 mM Tris, pH 7.5, 10 mM Mg(OAc)2. […] Vacuum filtration was performed with an Amersham Pharmacia Biotech (Piscataway, N.J.) vacuum filtration manifold.
All binding reactions were performed in triplicate and corrected by subtraction of background values, determined in binding reactions lacking GRP94.

GRP94 [2] = target: T1, GRP94; assay: Tryptophan fluorescence (tertiary conformational state); format: biochemical, porcine; conditions: 50 μM NECA, 50 μM geldanamycin, 2.5 mM ATP or 2.5 mM ADP; 1 h 37° C.
Experimental: Tryptophan Fluorescence. Tryptophan fluorescence measurements were conducted in a FLUOROMAX™ spectrofluorometer (Spex Industries, Inc. of Edison, N.J.) with the slit widths set to 1 nm for both excitation and emission. […] All spectra were corrected by subtraction of buffer or buffer plus ligand samples. GRP94 (50 μg/ml) was incubated in buffer A supplemented with 10 mM Mg(OAc)2 and the following concentrations of ligands for 1 hour at 37° C. […] Samples were then cooled to room temperature, transferred to a quartz cuvette, and the spectra collected.

GRP94 [3] = target: T1, GRP94; assay: Fluorophore binding to native and heat shocked GRP94 (fluorescence emission); design: species or system porcine; conditions: for fluorophore binding to native versus heat shocked GRP94 (fluorescence emission): 0.5 μM GRP94, 5 μM probe, 37° C.
Excerpt: Fluorophore Binding Reactions.
Fluorescence Measurements. […] All spectra were background corrected.
To characterize the structural basis for the heat shock dependent activation of GRP94 activity, the interaction of polarity-sensitive fluorophores with native and heat shocked GRP94 was examined. The three probes tested, Prodan (6-propionyl-2-(dimethylamino)naphthalene), 8-ANS (1,8-anilinonaphthalenesulfonate) and bis-ANS (bis(1,8-anilino-naphthalenesulfonate) are structurally related probes that bind to hydrophobic sites on proteins and undergo substantial fluorescence spectrum changes upon introduction into nonpolar environments, as discussed by Rosen & Weber (1969) Biochemistry 8:3915-3920; Weber & Farris (1979) Biochemistry 18:3075-3078; Takashi et al. (1977) Proc Natl Acad Sci USA 74:2334-2338; Shi et al. (1994) Biochemistry 33:7536-7546. The following experimental protocol was utilized. GRP94 was warmed to 37° C. and either maintained at 37° C. or heat shocked for 15 minutes at 50° C., followed by incubation at 37° C. Subsequently, probe stocks were added to the GRP94 stocks and emission spectra recorded after 30 min at 37° C.
Under the experimental conditions used in this series of experiments, bis-ANS binding to GRP94 was near maximal at a 20-fold molar excess of GRP94 monomer over bis-ANS, with half maximal binding observed at 110 nM GRP94 (FIG. 2B).

GRP94 [4] = target: T1, GRP94; assay: GRP94 autophosphorylation assay; format: biochemical, porcine; conditions: 180 μM NECA or radicicol in 3.6% DMSO, 5 μg/ml heparin, 5 mM GTP
Experimental: as §1

T1 sequence (Q29092 22-804): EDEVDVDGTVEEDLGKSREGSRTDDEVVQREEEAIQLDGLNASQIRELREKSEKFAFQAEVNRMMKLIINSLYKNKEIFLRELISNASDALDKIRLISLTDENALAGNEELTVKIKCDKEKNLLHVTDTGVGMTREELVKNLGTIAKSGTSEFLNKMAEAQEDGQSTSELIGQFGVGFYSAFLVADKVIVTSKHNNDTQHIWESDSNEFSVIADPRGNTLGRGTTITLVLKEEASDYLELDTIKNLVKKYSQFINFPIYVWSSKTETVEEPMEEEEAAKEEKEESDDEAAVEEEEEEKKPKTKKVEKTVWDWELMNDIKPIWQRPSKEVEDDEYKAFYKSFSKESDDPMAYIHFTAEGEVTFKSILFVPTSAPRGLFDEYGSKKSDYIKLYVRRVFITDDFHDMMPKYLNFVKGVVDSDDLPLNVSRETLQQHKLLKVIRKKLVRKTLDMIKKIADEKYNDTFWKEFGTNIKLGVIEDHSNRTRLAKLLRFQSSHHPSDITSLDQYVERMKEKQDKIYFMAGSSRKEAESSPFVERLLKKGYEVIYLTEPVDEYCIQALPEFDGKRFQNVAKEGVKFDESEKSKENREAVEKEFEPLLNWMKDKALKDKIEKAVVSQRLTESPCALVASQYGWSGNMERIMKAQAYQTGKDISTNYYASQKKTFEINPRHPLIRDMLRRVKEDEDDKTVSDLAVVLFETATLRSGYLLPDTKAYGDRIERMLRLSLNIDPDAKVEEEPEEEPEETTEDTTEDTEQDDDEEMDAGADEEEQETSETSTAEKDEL
Sequence of casein kinase II (P68400 whole entry): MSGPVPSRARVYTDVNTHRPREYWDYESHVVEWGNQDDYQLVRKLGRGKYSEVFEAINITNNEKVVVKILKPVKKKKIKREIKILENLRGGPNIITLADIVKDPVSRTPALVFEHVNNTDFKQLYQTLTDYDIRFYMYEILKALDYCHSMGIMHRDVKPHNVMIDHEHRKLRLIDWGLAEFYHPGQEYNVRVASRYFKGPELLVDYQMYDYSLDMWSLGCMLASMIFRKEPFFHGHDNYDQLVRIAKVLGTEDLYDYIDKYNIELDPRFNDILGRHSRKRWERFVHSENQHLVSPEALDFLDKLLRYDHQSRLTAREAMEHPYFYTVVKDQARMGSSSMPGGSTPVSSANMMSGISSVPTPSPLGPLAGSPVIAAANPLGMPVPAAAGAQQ
Sequence of casein kinase II (P67870 whole entry partner): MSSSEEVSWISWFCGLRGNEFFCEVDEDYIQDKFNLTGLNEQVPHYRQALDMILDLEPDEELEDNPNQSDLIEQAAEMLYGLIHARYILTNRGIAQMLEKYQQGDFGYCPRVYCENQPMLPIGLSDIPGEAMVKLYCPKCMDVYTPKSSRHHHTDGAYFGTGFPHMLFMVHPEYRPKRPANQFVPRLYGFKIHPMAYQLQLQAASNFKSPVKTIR
Sequence of HSP90 (P02829 whole entry): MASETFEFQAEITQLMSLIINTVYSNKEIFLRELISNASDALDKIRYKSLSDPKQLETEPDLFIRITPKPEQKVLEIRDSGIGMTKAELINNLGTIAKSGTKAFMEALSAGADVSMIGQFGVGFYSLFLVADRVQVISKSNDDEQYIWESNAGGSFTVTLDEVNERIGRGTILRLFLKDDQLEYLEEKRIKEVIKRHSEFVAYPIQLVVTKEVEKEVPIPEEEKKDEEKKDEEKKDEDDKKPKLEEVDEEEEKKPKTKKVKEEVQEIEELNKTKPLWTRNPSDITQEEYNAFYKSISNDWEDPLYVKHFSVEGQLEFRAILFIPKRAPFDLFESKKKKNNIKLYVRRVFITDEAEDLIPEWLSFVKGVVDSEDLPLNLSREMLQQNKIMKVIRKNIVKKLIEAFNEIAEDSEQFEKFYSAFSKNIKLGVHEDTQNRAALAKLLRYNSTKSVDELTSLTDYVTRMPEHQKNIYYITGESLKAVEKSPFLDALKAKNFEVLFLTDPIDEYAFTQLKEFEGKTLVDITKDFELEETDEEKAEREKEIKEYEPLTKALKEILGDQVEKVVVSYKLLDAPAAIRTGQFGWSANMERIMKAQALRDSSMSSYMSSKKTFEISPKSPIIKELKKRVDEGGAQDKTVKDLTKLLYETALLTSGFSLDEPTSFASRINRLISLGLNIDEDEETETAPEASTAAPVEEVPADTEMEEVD

Compound: C[C@@H]1C[C@H]2O[C@@H]2/C=C\C=C\C(=O)Cc2c(Cl)c(O)cc(O)c2C(=O)O1 [radicicol]
- inhibition of casein kinase II activity (casein kinase II): neither NECA nor radicicol, both of which bind to the N-terminal nucleotide binding domain of GRP94, significantly inhibit GRP94 derived or casein kinase II activity below the solvent background
- binding stoichiometry to Hsp90 (HSP90; Roe et al. (1999)): 2 mol radicicol/mol Hsp90 dimer

Compound: Nc1ncnc2c1ncn2[C@@H]1O[C@H](COP(=O)(O)OP(=O)(O)O)[C@@H](O)[C@H]1O [ADP]
- effect of excess Mg2+ on binding to GRP94 (GRP94 [1]): markedly stimulated the binding of ATP, ADP and AMP
- relative affinities for GRP94 in presence of Mg2+ (GRP94 [1]; excess Mg2+): nearly identical relative affinities
- affinity of N-terminal domain of Hsp90, ADP relative to ATP (HSP90; Prodromou et al. (1997)): four-fold higher affinity than that observed for ATP
- change of GRP94 tryptophan fluorescence (GRP94 [2]): the tryptophan fluorescence was decreased

Compound: O=S(=O)(O)c1cccc2cccc(Nc3ccccc3)c12 [8-ANS, 1,8-anilinonaphthalenesulfonate]
- agonist activity for GRP94 activation (GRP94 [3]): functions solely as an indicator and lacks agonist activity
- fluorophore binding to native versus heat shocked GRP94 (fluorescence emission) (GRP94 [3]): displays weak interactions with native GRP94, yet binds avidly following heat shock

Compound: Nc1ccn([C@@H]2O[C@H](COP(=O)(O)OP(=O)(O)OP(=O)(O)O)[C@@H](O)[C@H]2O)c(=O)n1 [CTP]
- nucleoside base specificity: binding to GRP94 by [3H]-NECA displacement (GRP94 [1]): little to no binding

Compound: Nc1ncnc2c1ncn2[C@@H]1O[C@H](CO)[C@@H](O)[C@H]1O [adenosine]
- relative displacement activity in [3H]-NECA competition (GRP94 [1]): relative displacement activity approximating that observed for ADP
- effect of excess Mg2+ on binding to GRP94 (GRP94 [1]): without effect on the binding of NECA or adenosine to GRP94

Compound: O=c1ccn([C@@H]2O[C@H](COP(=O)(O)OP(=O)(O)OP(=O)(O)O)[C@@H](O)[C@H]2O)c(=O)[nH]1 [UTP]
- nucleoside base specificity: binding to GRP94 by [3H]-NECA displacement (GRP94 [1]): little to no binding

Compound: Heparin
- inhibition of GRP94 autophosphorylation (GRP94-derived kinase) activity (GRP94 [4]): markedly attenuated GRP94-derived and casein kinase II activity
- inhibition of casein kinase II activity (casein kinase II): markedly attenuated GRP94-derived and casein kinase II activity

Compound: Nc1ncnc2c1ncn2[C@@H]1O[C@H](COP(=O)(O)O)[C@@H](O)[C@H]1O [AMP]
- effect of excess Mg2+ on binding to GRP94 (GRP94 [1]): markedly stimulated the binding of ATP, ADP and AMP

Compound: Nc1nc2c(ncn2[C@@H]2O[C@H](COP(=O)(O)OP(=O)(O)OP(=O)(O)O)[C@@H](O)[C@H]2O)c(=O)[nH]1 [GTP]
- inhibition of GRP94 autophosphorylation (GRP94-derived kinase) activity (GRP94 [4]): markedly attenuated GRP94-derived and casein kinase II activity
- inhibition of casein kinase II activity (casein kinase II): markedly attenuated GRP94-derived and casein kinase II activity
- nucleoside base specificity: binding to GRP94 by [3H]-NECA displacement (GRP94 [1]): little to no binding

Compound: Nc1ncnc2c1ncn2[C@H]1C[C@H](O)[C@@H](COP(=O)(O)OP(=O)(O)OP(=O)(O)O)O1 [deoxyATP]
- nucleoside base specificity: binding to GRP94 by [3H]-NECA displacement (GRP94 [1]): GRP94 could bind both ATP and deoxyATP

Compound: CCC(=O)c1ccc2cc(N(C)C)ccc2c1 [Prodan, 6-propionyl-2-(dimethylamino)naphthalene]
- fluorophore binding to native versus heat shocked GRP94 (fluorescence emission) (GRP94 [3]): does not interact with the hydrophobic binding pocket(s) displayed by heat shocked GRP94
